According to patent publication US20240025893A1, “PYRIMIDINE-AND NITROGEN-CONTAINING BICYCLIC COMPOUND” (Asahi Kasei Pharma Corporation, priority 2020, published 2024):

How the values were obtained:
[1] = target: human IRAK-4 (Homo sapiens (Human), UniProt Q9NWZ3); assay: Measurement of human IRAK-4 inhibitory activity (TR-FRET, peptide substrate phosphorylation, 10 μM ATP); format: biochemical; details: 1 nM IRAK-4, 10 μM ATP, 23° C., 30 minutes; average values
Experimental: For the measurement of the activity of the human IRAK-4 (Invitrogen, Cat. PV3362), phosphorylation of the IRAK-4 peptide substrate (biotin-KKKKRFSFKKSFKC) by the enzyme in the presence of 10 μM ATP (Sigma-Aldrich, Cat. A7699) was measured by the TR-FRET method. The enzymatic reaction was performed in a reaction buffer containing 50 mM HEPES (pH 7.2), 1 mM DTT, 0.1 mM Na3VO4, 5 mM MgCl2, 1 mM MnCl2, and 0.1% bovine serum albumin. For the measurement of the IRAK-4 inhibitory activity, a test compound was added to the reaction buffer containing 1 nM IRAK-4, 0.5 μM peptide substrate, and 10 μM ATP, and the mixture was incubated at 23° C. for 30 minutes. Then, a detection solution containing an antibody labeled with europium cryptate (0.3 μg/mL, the antibody was prepared by using the IRAK-4 peptide substrate as the antigen), streptavidin-XL665 (2 μg/mL, CisBio, Cat. 610SAXLB), 50 mM HEPES (pH 7.2), 0.1% BSA, 120 mM KF, and 66.7 mM EDTA (all the concentrations of the reagents are final concentrations) was added to terminate the reaction, and then the mixture was further incubated at 23° C. for 60 minutes. Fluorescence intensity was measured at wavelengths of 665 nm and 620 nm with a microplate reader, and the enzymatic activity was calculated as the ratio of fluorescence intensities at 665 nm and 620 nm (665 nm/620 nm).

[2] = test system: LPS-stimulated TNFα production in THP-1 cells; assay: LPS-stimulated TNFα production inhibition test using human acute monocytic leukemia cell strain THP-1; format: cell-based; details: LPS 2.5 ng/mL, average values
Experimental: By the THP-1 assay, influence of a test compound on the TNFα production induced by LPS stimulation can be evaluated. The THP-1 cells (ATCC, Cat. TIB-202) were inoculated on a 96-well plate at a density of 1×10^5 cells/160 μL/well, a test compound was added in a volume of 20 μL, and the plate was incubated at 37° C. for 1 hour in a 5% CO2 incubator. Then, LPS in a volume of 20 μL (final concentration 2.5 ng/mL, Sigma, Cat. L2630) was added, and the plate was further incubated for 4 hours. After the incubation, the plate was centrifuged, and 100 μL of the supernatant was taken from each well, and used for evaluation of the amount of TNFα using HTRF (Cisbio, Cat. 62TNFPEB). In the measurement of the amount of TNFα, the supernatant was diluted twice with the medium, and then added to wells of a 384-well plate in a volume of 10 μL, then anti-TNFα-cryptate (5 μL), and anti-TNFα-XL665 (5 μL) were added, and the plate was left standing overnight. The fluorescence intensity ratio for the wavelengths of 620 and 665 nm (620 nm/665 nm) was measured with a microplate reader, and the amount of TNFα in the supernatant was calculated by using a calibration curve. The TNFα production suppression ratio observed with no addition of LPS was defined to be 100%, the TNFα production suppression ratio observed with no addition of the test compound was defined to be 0%, and IC50 of the test compound was calculated by using the 4-parameter logistic model of the data analysis software XLfit (ID Business Solutions Ltd.).

Sequence of human IRAK-4 (Q9NWZ3 whole entry): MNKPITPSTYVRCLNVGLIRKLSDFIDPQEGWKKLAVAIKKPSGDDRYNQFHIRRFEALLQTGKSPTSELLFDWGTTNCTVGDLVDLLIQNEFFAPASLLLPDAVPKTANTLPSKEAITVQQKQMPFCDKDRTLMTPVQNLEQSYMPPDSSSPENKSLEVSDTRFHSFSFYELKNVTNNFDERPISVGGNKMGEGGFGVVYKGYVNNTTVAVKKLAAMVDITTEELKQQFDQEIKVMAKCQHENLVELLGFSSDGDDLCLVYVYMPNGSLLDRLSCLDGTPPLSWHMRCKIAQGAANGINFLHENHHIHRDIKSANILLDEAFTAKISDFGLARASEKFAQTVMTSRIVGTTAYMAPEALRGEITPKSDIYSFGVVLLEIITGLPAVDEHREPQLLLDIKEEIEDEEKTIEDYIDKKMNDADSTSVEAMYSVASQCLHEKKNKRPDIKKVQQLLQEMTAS

Row | SMILES | IC50 [1] [nM] | IC50 ([2]; Homo sapiens, THP-1, 4 h) [nM] | IC50 ([2]; 4 hours) [nM]
1 | O=C(Nc1nc2ccc(-c3cnc(CO[C@H]4CCC[C@@H]4O)nc3)cc2s1)[C@H]1C[C@H]1F [a-01-02] | 1.98 | 180 | –
2 | CO[C@H]1C[C@@H](C(=O)Nc2nc3ccc(-c4cnc(CO[C@H]5CCC[C@@H]5O)nc4)cc3s2)C1 [a-01-06] | – | 170 | –
3 | COc1ccc([C@@H]2CC2C(=O)Nc2nc3ccc(-c4cnc(CO[C@H]5CCC[C@@H]5O)nc4)cc3s2)cc1 (stereo partly drawn) [a-01-10] | 12.1 | 678 | –
4 | O=C(Nc1nc2ccc(-c3cnc(CO[C@H]4CCC[C@@H]4O)nc3)c(Cl)c2s1)C1CC1 [a-01-11] | 7.89 | 437 | –
5 | O=C(Nc1nc2ccc(-c3cnc(CO[C@H]4CCC[C@@H]4O)nc3)c(F)c2s1)C1CC1 [a-01-12] | 7.75 | 361 | –
6 | CCCOCc1ncc(-c2ccc3nc(NC(=O)C4CC4)sc3c2)cn1 [a-02-01, N-(6-(2-(Propoxymethyl)pyrimidin-5-yl)benzo[d]thiazol-2-yl)cyclopropanecarboxamide] | 16.1 | 330 | –
7 | O=C(Nc1nc2ccc(-c3cnc(COC4CCCC4)nc3)cc2s1)C1CC1 [a-04-01, N-(6-(2-(Cyclopentoxymethyl)pyrimidin-5-yl)-1,3-benzo[d]thiazol-2-yl)cyclopropanecarboxamide] | 1.38 | 261 | –
8 | O=C(Nc1nc2ccc(-c3cnc(COC4CCC4)nc3)cc2s1)C1CC1 [a-04-03] | 2.32 | 355 | –
9 | O=C(Nc1nc2ccc(-c3cnc(COC4CC(F)(F)C4)nc3)cc2s1)C1CC1 [a-04-04] | 2.32 | 444 | –
10 | O=C(Nc1nc2ccc(-c3cnc(COC[C@@H]4CCCO4)nc3)cc2s1)C1CC1 [a-05-01] | 7.81 | 304 | –
11 | O=C(Nc1nc2ccc(-c3cnc(CO[C@H]4CCC[C@@H]4O)nc3)cc2s1)C1CC(N2CC(F)C2)C1 (stereo partly drawn) [b-01-02] | 3.33 | – | 177
12 | O=C(Nc1nc2ccc(-c3cnc(CO[C@H]4CCC[C@@H]4O)nc3)cc2s1)C1CC(N2CC[C@@H](F)C2)C1 (stereo partly drawn) [b-02-01] | 3.16 | 195 | –
13 | O=C(Nc1nc2ccc(-c3cnc(CO[C@H]4CCC[C@@H]4O)nc3)cc2s1)C1CC(N2CC[C@H](F)C2)C1 (stereo partly drawn) [b-02-02] | 2.79 | 195 | –
14 | O=C(Nc1nc2ccc(-c3cnc(CO[C@H]4CCC[C@@H]4O)nc3)cc2s1)C1CC(N2CCCOCC2)C1 (stereo partly drawn) [b-02-03] | 2.53 | 166 | –
15 | C[C@H]1CN(C2CC(C(=O)Nc3nc4ccc(-c5cnc(CO[C@H]6CCC[C@@H]6O)nc5)cc4s3)C2)CCO1 (stereo partly drawn) [b-02-07] | 2.28 | 164 | –
16 | CC1(F)CN(C2CC(C(=O)Nc3nc4ccc(-c5cnc(CO[C@H]6CCC[C@@H]6O)nc5)cc4s3)C2)C1 (stereo partly drawn) [b-02-45] | – | 200 | –
17 | O=C(Nc1nc2ccc(-c3cnc(CO[C@H]4CCC[C@@H]4O)nc3)cc2s1)C1CC(NC2CC(F)(F)C2)C1 (stereo partly drawn) [b-02-64] | – | 164 | –
18 | O=C(Nc1nc2ccc(-c3cnc(CO[C@H]4CCC[C@@H]4O)nc3)cc2s1)C1CC(N2CCCC3(COC3)C2)C1 (stereo partly drawn) [b-02-75] | – | 186 | –
19 | COc1c(-c2cnc(CO[C@H]3CCC[C@@H]3O)nc2)ccc2nc(NC(=O)[C@H]3C[C@@H]3C)sc12 [c-02-02] | – | 186 | –
20 | COc1c(-c2cnc(CO[C@H]3CCC[C@@H]3O)nc2)ccc2nc(NC(=O)[C@H]3C[C@H]3C)sc12 [c-02-03] | – | 229 | –
21 | O=C(Nc1nc2ccc(-c3cnc(CO[C@H]4CCC[C@@H]4O)nc3)cc2s1)C1CC2(CCN(C(=O)c3ccccc3)CC2)C1 [d-03-04] | – | 194 | –
22 | O=C(Nc1nc2ccc(-c3cnc(CO[C@H]4CCC[C@@H]4O)nc3)cc2s1)[C@H]1C[C@@H](OCC2CC2)C1 [d-04-04] | – | 169 | –
23 | CC(C)(C)OC1CC(C(=O)Nc2cc3cc(-c4cnc(CO[C@H]5CCC[C@@H]5O)nc4)ccn3n2)C1 (stereo partly drawn) [e-03-01, 3-(tert-Butoxy)-N-(5-(2-((((1S,2S)-2-hydroxycyclopentyl)oxy)methyl)pyrimidin-5-yl)pyrazolo[1,5-a]pyridin-2-yl)cyclobutane-1-carboxamide] | – | 168 | –

More lines, in order of falling IC50 ([2]; Homo sapiens, THP-1, 4 h), values ahead:

Row | IC50 [1] [nM] | IC50 ([2]; Homo sapiens, THP-1, 4 h) [nM] | IC50 ([2]; 4 hours) [nM] | SMILES
24 | 2.66 | 161 | – | O=C(Nc1nc2ccc(-c3cnc(CO[C@H]4CCC[C@@H]4O)nc3)cc2s1)C1C[C@H]1c1ccncc1 (stereo partly drawn) [a-01-08]
25 | 3.39 | 154 | – | O=C(Nc1nc2ccc(-c3cnc(CO[C@H]4CCC[C@@H]4O)nc3)cc2s1)C1CC(N2CCOCC2)C1 (stereo partly drawn) [b-01-01, N-(6-(2-((((1S,2S)-2-Hydroxycyclopentyl)oxy)methyl)pyrimidin-5-yl)benzo[d]thiazol-2-yl)-3-moipholinocyclobutane-1-carboxamide]
26 | 1.73 | 151 | – | O=C(Nc1nc2ccc(-c3cnc(CO[C@H]4CCC[C@@H]4O)nc3)cc2s1)[C@@H]1C[C@@H]1F [a-01-04]
27 | 1.73 | 148 | – | Cn1cc([C@@H]2CC2C(=O)Nc2nc3ccc(-c4cnc(CO[C@H]5CCC[C@@H]5O)nc4)cc3s2)cn1 (stereo partly drawn) [a-01-07]
28 | 3.64 | 146 | – | O=C(Nc1nc2ccc(-c3cnc(CO[C@H]4CCC[C@@H]4O)nc3)cc2s1)C1CC(N2CCC(F)(F)CC2)C1 (stereo partly drawn) [b-02-04]
29 | 2.69 | 141 | – | O=C(Nc1nc2ccc(-c3cnc(CO[C@H]4CCC[C@@H]4O)nc3)cc2s1)[C@@H]1C[C@H]1F [a-01-03]
30 | 1.81 | 140 | – | O=C(Nc1nc2ccc(-c3cnc(CO[C@H]4CCC[C@@H]4O)nc3)cc2s1)C1C[C@H]1C1CCOCC1 (stereo partly drawn) [a-01-09]
31 | 2.12 | 131 | – | C[C@@H]1COCCN1C1CC(C(=O)Nc2nc3ccc(-c4cnc(CO[C@H]5CCC[C@@H]5O)nc4)cc3s2)C1 (stereo partly drawn) [b-02-05]
32 | 1.89 | 121 | – | O=C(Nc1nc2ccc(-c3cnc(CO[C@H]4CCC[C@@H]4O)nc3)cc2s1)C1CC1 [a-01-01, N-(6-(2-((((1S,2S)-2-Hydroxycyclopentyl)oxy)methyl)pyrimidin-5-yl)benzo[d]thiazol-2-yl)cyclopropanecarboxamide]
33 | 2.08 | 121 | – | O=C(Nc1nc2ccc(-c3cnc(CO[C@H]4CCC[C@@H]4O)nc3)cc2s1)C1C[C@H]1c1cccnc1 (stereo partly drawn) [a-01-05]
34 | – | 113 | – | CN(C1CC(C(=O)Nc2nc3ccc(-c4cnc(CO[C@H]5CCC[C@@H]5O)nc4)cc3s2)C1)C1(C#N)CC1 (stereo partly drawn) [b-02-73]
35 | – | 111 | – | COCC(=O)N1CCC2(CC1)CC(C(=O)Nc1nc3ccc(-c4cnc(CO[C@H]5CCC[C@@H]5O)nc4)cc3s1)C2 [d-03-02]
36 | – | 93 | – | CCNC(=O)N1CCN([C@H]2C[C@@H](C(=O)Nc3nc4ccc(-c5cnc(CO[C@H]6CCC[C@@H]6O)nc5)cc4s3)C2)[C@@H](C)C1 [b-06-01]
37 | – | 87 | – | O=C(Nc1nc2ccc(-c3cnc(CO[C@H]4CCC[C@@H]4O)nc3)cc2s1)C1CC2(CCN(C(=O)C3CC3)CC2)C1 [d-03-03]
38 | – | 81 | – | C[C@H]1CN(S(C)(=O)=O)CCN1[C@H]1C[C@@H](C(=O)Nc2nc3ccc(-c4cnc(CO[C@H]5CCC[C@@H]5O)nc4)cc3s2)C1 [b-05-08]
39 | 1.34 | 66 | – | C[C@H]1COCCN1C1CC(C(=O)Nc2nc3ccc(-c4cnc(CO[C@H]5CCC[C@@H]5O)nc4)cc3s2)C1 (stereo partly drawn) [b-02-06]
40 | 1.41 | 57 | – | O=C(Nc1nc2ccc(-c3cnc(CO[C@H]4CC(F)(F)C[C@@H]4O)nc3)cc2s1)C1CC1 [a-03-01, N-(6-(2-((((1 S,2S)-4,4-Difluoro-2-hydroxycyclopentyl)oxy)methyl)pyrimidin-5-yl)benzo[d]thiazol-2-yl)cyclopropanecarboxamide]
